Results: US10781224B2, “Bis(oxymethyl)phosphinic acid and biogenic metal salts thereof as regulators of plant growth and development” (priority 2016, dated 2020)

Columns and labels:
Type in all cases: in vivo
[1] = tested on: corn (Krasnodar 385 MV variety); assay: Corn seed treatment with BHMPA salts: germinating power; settings: corn seeds; solution concentration 1 · 10^−7%
Method: (§1) Experimental versions—soaking seeds in BHMPA solutions and solutions of BHMPA Ca, Mg, Na, Co, Mn, Cu, and Zn salts at 1·10^−6-1·10^−12% concentrations (doses). The studies were conducted in laboratory in Petri dishes; seed bed—two layers of filter paper. 50 seeds soaked in water (control) and in the solutions of the tested compounds (experimental) were placed into each dish. Wheat, corn, and rice seeds were exposed for one hour.
(§2) Seed germination energy and rate were calculated in percent as an arithmetic mean of the four experimental results (germination energy on the 4th day, wheat germination on the 8th day, rice and corn germination—on the 7th day). Germination was determined based on the germinating power indicators (length of the roots and sprouts and their wet and dry mass per 100 shoots).
(§3) The effect of pre-sowing seed treatment with the claimed BHMPA salts of biogenic metals was studied on winter wheat (Vershin variety), corn (Krasnodar 385 MV variety), and rice (Diamant variety).
(§4) The above data describe the seed viability only at the initial stage of germination, while the germination ability at the later stage of germination is defined by the initial germinating power. The method for the determination of the germinating power comprises measuring the height of the sprouts and primary roots, as well as the biomass and the dry mass thereof per 100 seedlings. [M. A. Kartuzova. Initial Germinating Power as Method of Biological Assessment of Seed Quality. Selection and Seed Farming, #2, 1953].

[2] = tested on: corn (Krasnodar 385 MV variety); assay: Corn seed treatment with BHMPA salts: germination energy and germination rate; settings: comparative study vs Melaphen, 1·10^−7% solution
Method: (§5) Control—Soaking Seeds in Water;
as §1
(§6) Analysis was conducted according to the government standards GOST 12038-84 “Crop seeds. Technical conditions for determining the germination energy and germination rate”, GOST 12044-93 “Crop seeds. Methods for determining disease contamination.”
as §2, §3

rice (Diamant variety) [3] = assay: Rice seed treatment with BHMPA salts: germinating power; settings: rice seed treatment, comparison with Melaphen (Table XXXIII), solution 1 · 10^−8%
Method: as §1, §2, §3, §4

rice (Diamant variety) [4] = assay: Rice seed treatment with BHMPA salts: germination energy and germination rate
Method: as §5, §1, §6, §2, §3

[5] = tested on: winter wheat (Vershin variety); assay: Winter wheat seed treatment with BHMPA salts: germination energy and germination rate; settings: winter wheat; comparative study vs Melaphen; 1·10^−7% solution
Method: as §5, §1, §6, §2, §3

[6] = tested on: winter wheat (Kazan 560 variety); assay: Field study: winter wheat seed treatment and spraying, yield and quality of the grain; settings: for Field germination, % / Grain mass from the main ear / Number of grains in an ear / Viability, % / Yield, dt/ha: winter wheat
Method: Field studies were conducted for the BHMPA Mg-salt. The effect of treatment winter wheat seeds (Kazan 560 variety) with BHMPA Mg-salt solutions on the yield and quality of the grain was examined. The field experiment was conducted at a branch of a fallow rotation. The seeds were sowed on Sep. 1, 2015, in an area covering 1.7 hectares of the experimental field located at the experimental base of Tatarstan Research Institute of Agriculture. For comparison, the seeds were treated with the BHMPA Mg-salt solution and the known growth-regulator Melaphen at the same concentrations, optimum for Melaphen.
The experiment was conducted for the following variants: • 1. Control (no seed treatment); • 2. Seed treatment with the BHMPA Mg-salt solution at a 1·10^−7% concentration; • 3. Seed treatment with the BHMPA Mg-salt solution at a 1·10^−7% concentration+spraying with the BHMPA Mg-salt solution at a 1·10^−8% concentration upon vegetation during spring tillering and earing phases; • 4. Seed treatment with the growth regulator Melaphen at a 1·10^−7% concentration; • 5. Seed treatment with Melaphen at a 1·10^−7% concentration and spraying with Melaphen at a 1·10^−8% concentration upon vegetation during spring tillering and earing phases.
The seeds were treated with the experimental compounds together with a seed disinfectant at a rate of 10 ml/T. The vegetating plants were treated at a rate of 5 ml/ha. Identical field operations appropriate for that zone as well as plant protection measures against weeds and disease, were applied in all cases.
Results of field experiments with BHMPA Mg-salt as the main growth-regulating component of said pre-sowing seed treatment combined with additional treatment of winter wheat plants with other claimed BHMPA salts, are presented in Table XXXV.

[7] = tested on: spring wheat (Ekada-66 variety); assay: Spring wheat seed treatment: germination rate and plant height (laboratory, Petri dishes); settings: spring wheat
Method: as §5, §1, §6, §2
The study of the effect of pre-sowing seed treatment with BHMPA was conducted on winter wheat (Kazan-500 variety) and spring wheat (Ekada-66 variety).

[8] = tested on: winter wheat (Vershin variety); assay: Winter wheat seed treatment with BHMPA salts: germinating power (length and mass of roots and sprouts); settings: comparative study, 1·10^−7% solution
Method: as §1, §2, §3, §4

[9] = rice seed treatment, solution 1 · 10^−8%
[10] = rice, comparative study vs Melaphen, 1·10^−8% solution
[11] = seed treatment 1 · 10^−7% + spraying plants with the same substance 1 · 10^−8%

For `Nc1nc(N)nc(N)n1.O=P(O)(CO)CO` [Melaphen, melamine salt of BHMPA, reference compound], which “Length, root” value [1] is on record?
Its value is 8.4 cm.

What about the “Length, root, + % to control” value [1] of the same molecule?
The value was 42%.

What about the “Length, sprout” value [1] of the same molecule?
Its value is 4.3 cm.

What about the “Length, sprout, + % to control” value [1] of the same molecule?
Its value is 59%.

And the “Mass, dry, root” value [1]?
The value was 2.42 g/100 plantlings.

What about the “Mass, dry, root, + % to control” value [1] of the same molecule?
Its value is 37.5%.

What about the “Mass, dry, sprout” value [1] of the same molecule?
The value was 1.86 g/100 plantlings.

What about the “Mass, dry, sprout, + % to control” value [1] of the same molecule?
The value was 37%.

And the “Mass, wet, root” value [1]?
The value was 12.02 g/100 plantlings.

And the “Mass, wet, root, + % to control” value [1]?
The value was 37%.

What about the “Mass, wet, sprout” value [1] of the same molecule?
Its value is 10.23 g/100 plantlings.

And the “Mass, wet, sprout, + % to control” value [1]?
The value was 44%.

And the Germination energy [2]?
The Germination energy was 90.7%.

What about the Germination rate [2] of the same molecule?
Its Germination rate is 97.7%.

And the “Length, root” value (rice (Diamant variety) [3])?
The value was 7.6 cm.

And the “Length, root, + % to control” value (rice (Diamant variety) [3])?
Its value is 58%.

What about the “Length, sprout” value (rice (Diamant variety) [3]) of the same molecule?
Its value is 4.9 cm.

And the “Length, sprout, + % to control” value (rice (Diamant variety) [3])?
Its value is 88%.

And the “Mass, dry, root” value (rice (Diamant variety) [3])?
The value was 0.29 g/100 plantlings.

What about the “Mass, dry, root, + % to control” value (rice (Diamant variety) [3]) of the same molecule?
Its value is 38%.

And the “Mass, dry, sprout” value (rice (Diamant variety) [3])?
Its value is 0.35 g/100 plantlings.

And the “Mass, dry, sprout, + % to control” value (rice (Diamant variety) [3])?
Its value is 40%.

And the “Mass, wet, root” value (rice (Diamant variety) [3])?
Its value is 1.57 g/100 plantlings.

What about the “Mass, wet, root, + % to control” value (rice (Diamant variety) [3]) of the same molecule?
Its value is 60%.

What about the “Mass, wet, sprout” value (rice (Diamant variety) [3]) of the same molecule?
Its value is 2.62 g/100 plantlings.

What about the “Mass, wet, sprout, + % to control” value (rice (Diamant variety) [3]) of the same molecule?
The value was 73.5%.

And the “Germination energy, %” value (rice (Diamant variety) [4]; [9])?
The value was 89.5%.

And the “Germination rate, %” value (rice (Diamant variety) [4]; [9])?
Its value is 96.3%.

What about the Germination energy (rice (Diamant variety) [4]; [10]) of the same molecule?
The Germination energy was 89.5%.

What about the Germination rate (rice (Diamant variety) [4]; [10]) of the same molecule?
Its Germination rate is 96.3%.

And the Germination energy [5]?
The Germination energy was 95.0%.

What about the Germination rate [5] of the same molecule?
The Germination rate was 98.3%.

And the “yield of winter wheat” value ([6]; field, seeds treated at 1·10^−7% and plants sprayed with 1·10^−8%, control 21.7 dt/ha)?
Its value is 29.3 dt/ha.

What about the “Field germination, %” value ([6]; seed treatment 1 · 10^−7%) of the same molecule?
The value was 71%.

And the “Grain mass from the main ear” value ([6]; seed treatment 1 · 10^−7%)?
The value was 1.0 g.

And the “Number of grains in an ear” value ([6]; seed treatment 1 · 10^−7%)?
Its value is 27.

What about the “Viability, %” value ([6]; seed treatment 1 · 10^−7%) of the same molecule?
The value was 74%.

And the “Yield, dt/ha” value ([6]; seed treatment 1 · 10^−7%)?
Its value is 28.0 dt/ha.

And the “Field germination, %” value [6, 11]?
The value was 71%.

What about the “Grain mass from the main ear” value [6, 11] of the same molecule?
The value was 1.2 g.

And the “Number of grains in an ear” value [6, 11]?
Its value is 30.

What about the “Viability, %” value [6, 11] of the same molecule?
Its value is 62%.

What about the “Yield, dt/ha” value [6, 11] of the same molecule?
The value was 29.3 dt/ha.

What about the “Germination rate % 4th day” value ([7]; 1·10^−7% solution) of the same molecule?
Its value is 54.0%.

What about the “Germination rate % 8th day” value ([7]; 1·10^−7% solution) of the same molecule?
Its value is 82.0%.

And the Plant height ([7]; 1·10^−7% solution)?
Its Plant height is 14.8 cm.

And the “Germination rate % 4th day” value ([7]; 1·10^−9% solution)?
Its value is 52.0%.

What about the “Germination rate % 8th day” value ([7]; 1·10^−9% solution) of the same molecule?
The value was 81.0%.

What about the Plant height ([7]; 1·10^−9% solution) of the same molecule?
The Plant height was 14.5 cm.

What about the Length, root [8] of the same molecule?
The Length, root was 10.3 cm.

What about the “Length, root, + % to control” value [8] of the same molecule?
The value was 18%.

What about the Length, sprout [8] of the same molecule?
Its Length, sprout is 7.3 cm.

And the “Length, sprout, + % to control” value [8]?
The value was 18%.

What about the Mass, dry, root [8] of the same molecule?
The Mass, dry, root was 0.72 g/100 plantlings.

And the “Mass, dry, root, + % to control” value [8]?
Its value is 16%.

And the Mass, dry, sprout [8]?
Its Mass, dry, sprout is 0.59 g/100 plantlings.

What about the “Mass, dry, sprout, + % to control” value [8] of the same molecule?
The value was 16%.

And the Mass, wet, root [8]?
Its Mass, wet, root is 6.02 g/100 plantlings.

And the “Mass, wet, root, + % to control” value [8]?
Its value is 66%.

What about the Mass, wet, sprout [8] of the same molecule?
Its Mass, wet, sprout is 5.27 g/100 plantlings.

And the “Mass, wet, sprout, + % to control” value [8]?
The value was 33%.
